In PubChem BioAssay AID485351 (Sanford-Burnham Center for Chemical Genomics, 2010) one finds IC50 data, which are given here for 79 molecules.

Several values for one entry are separate records, joined by “and”; a condition that tells them apart may be missing. Equal entries are not always repeated. Activity calls are given as the source filed them. The rule behind the calls is not given here.

In general, IC50 refers to the midpoint of a concentration-inhibition curve.

Chain of Ubiquitin-conjugating enzyme E2 N (Homo sapiens) (P61088 whole entry, looked up): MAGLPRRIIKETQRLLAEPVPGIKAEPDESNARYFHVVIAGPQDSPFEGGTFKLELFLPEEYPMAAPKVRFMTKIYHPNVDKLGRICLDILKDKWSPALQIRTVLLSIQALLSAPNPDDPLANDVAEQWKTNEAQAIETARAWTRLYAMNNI

The experiment has as its target Ubiquitin-conjugating enzyme E2 N (Homo sapiens) (UniProt P61088). Description: Ubc13/Uev1a ubiquitination inhibitors, SAR follow-up, biochemical, TR-FRET, set 2 (AID 485351). The settings on record: in vitro Ubc13-Uev1a ubiquitination. (In TR-FRET formats the signal depends on donor and acceptor labels being close together.)
As to `COC(=O)C1=C(C(=O)OC)C2([C@@H](C)Nc3ccccc3)C=CC1O2` (some centres undefined), the IC50 was > 100 µM (inactive).
As to `C=C[C@H](Nc1ccccc1)C12C=CC(O1)C(C(=O)OC)=C2C(=O)OC` (some centres undefined), the IC50 is 51.5 µM.
Under `COC(=O)C1=C(C(=O)OC)C2(C(Cc3ccc(F)cc3)Nc3ccccc3)C=CC1O2` (centres undefined) stands > 100 µM (inactive).
Turning to `N#Cc1c(NC(=O)c2ccccc2Cl)n(C2CCCCC2)c2nc3ccccc3nc12`, the IC50 is 2.84 µM.
In the case of `CCCCn1c(NC(=O)c2ccccc2Cl)c(C#N)c2nc3ccccc3nc21`, the IC50 was 0.697 µM and 1.01 µM.
Take `CCCC1=NN(c2ccc(C(=O)O)cc2)C(=O)/C1=C/c1ccc(O)cc1`: the IC50 was > 100 µM (inactive).
Then `COC(=O)C1=C(C(=O)OC)C2([C@@H](C)Nc3ccc(C)cc3)C=CC1O2` (some centres undefined), with > 100 µM (inactive); and `CCCC1=NN(c2ccccc2)C(=O)/C1=C\c1ccc(O)cc1`, with > 100 µM (inactive).
As to `C=CC[C@@H](Nc1ccc(OC)cc1)C12C=CC(O1)C(C(=O)OC)=C2C(=O)OC` (some centres undefined), the IC50 is 78.9 µM.
Then `CCCCn1c(NC(=O)c2ccco2)c(C#N)c2nc3ccccc3nc21`, with 0.777 µM; and `COC(=O)C1=C(C(=O)OC)C2([C@H](Cc3ccc(C)cc3)Nc3ccccc3)C=CC1O2` (some centres undefined), with > 100 µM (inactive); and `CCCCn1c(NC(=O)C2CCCCC2)c(C#N)c2nc3ccccc3nc21`, with 0.499 µM.
Then `C=CC[C@H](Nc1ccc(Cl)cc1)C12C=CC(O1)C(C(=O)OC)=C2C(=O)OC` (some centres undefined), with > 100 µM (inactive); and `CCCC1=NN(c2ccc(C(=O)O)cc2)C(=O)/C1=C/c1ccc(OCc2ccccc2)c(OC)c1`, with > 100 µM (inactive); and `Cc1cc(C)c2c(c1)C(=O)C(=O)N2CCN1CCOCC1`, with > 100 µM (inactive).
Take `COc1cc(/C=C2\C(=O)N(c3ccccc3)N=C2C)ccc1O`: the IC50 is > 100 µM (inactive).
For the molecule `C=C[C@@H](Nc1ccccc1)C12C=CC(O1)C(C(=O)OC)=C2C(=O)OC` (some centres undefined), the IC50 is > 100 µM (inactive).
Turning to `CCCCn1c(NC(=O)c2ccccc2)c(C#N)c2nc3ccccc3nc21`, the half-maximal inhibitory concentration (IC50) is 1.2 µM and 1 µM.
For the molecule `COc1ccc2c(c1)C(=O)C(=O)N2CCN1CCOCC1`, the IC50 was > 100 µM (inactive).
Turning to `COC(=O)C1=C(C(=O)OC)C2([C@H](C)Nc3ccccc3)C=CC1O2` (some centres undefined), the half-inhibitory concentration (IC50) was 80.2 µM.
Then `COC(=O)C1=C(C(=O)OC)C2([C@@H](C)Nc3ccc(OC)cc3)C=CC1O2` (some centres undefined), with > 100 µM (inactive).
Turning to `C=CC[C@@H](N(Cc1ccccc1)/C(=C\C(=O)OC)C(=O)OC)C12C=CC(O1)C(C(=O)OC)=C2C(=O)OC` (some centres undefined), the IC50 is > 100 µM (inactive).
Under `CCCCn1c(NC(=O)c2ccccc2)c(S(=O)(=O)c2ccc(C)cc2)c2nc3ccccc3nc21` stands 1.95 µM and 1.1 µM; under `C=CC[C@@H](Nc1ccc(C)cc1)C12C=CC(O1)C(C(=O)OC)=C2C(=O)OC` (some centres undefined), > 100 µM (inactive).
Then `COC(=O)C1=C(C(=O)OC)C2([C@H](Cc3ccccc3)Nc3ccc(C)cc3)C=CC1O2` (some centres undefined), with > 100 µM (inactive).
`CCCCCn1c(NC(=O)c2ccco2)c(C(=O)OCC)c2nc3ccccc3nc21`: the half-inhibitory concentration (IC50) was 0.501 µM.
Consider `CCCN1C(=O)C(NC(C)=O)c2cc(OC)ccc21` (centres undefined), for which the IC50 was > 100 µM (inactive).
Regarding `COCCn1c(NC(=O)c2ccc(Cl)cc2)c(S(=O)(=O)c2ccc(C)cc2)c2nc3ccccc3nc21`, the half-maximal inhibitory concentration (IC50) is 1.74 µM.
In the case of `c1ccc(CC(Nc2ccccc2)c2ccco2)cc1` (centres undefined), the IC50 was > 100 µM (inactive).
On to `CCC[C@@H](Nc1ccccc1)C12C=CC(O1)C(C(=O)OC)=C2C(=O)OC` (some centres undefined), for which the IC50 is > 100 µM (inactive).
Then `COC(=O)C1=C(C(=O)OC)C2([C@@H](Cc3ccc(C)cc3)Nc3ccccc3)C=CC1O2` (some centres undefined), with > 100 µM (inactive); and `CCCCn1c(NC(=O)c2ccccc2Cl)c(S(=O)(=O)c2ccccc2)c2nc3ccccc3nc21`, with 1.68 µM; and `COC(=O)C1=C(C(=O)OC)C2([C@H](C)Nc3ccc(Cl)cc3)C=CC1O2` (some centres undefined), with 53 µM.
For the molecule `COC(=O)C1=C(C(=O)OC)C2([C@H](Cc3ccccc3)Nc3ccc(Cl)cc3)C=CC1O2` (some centres undefined), the IC50 was > 100 µM (inactive).
Under `C=CC[C@@H](Nc1ccccc1)C12C=CC(O1)C(C(=O)OC)=C2C(=O)OC` (some centres undefined) stands > 100 µM (inactive); under `COCCNC(=O)c1c(NC(=O)c2ccccc2)n(Cc2ccccc2)c2nc3ccccc3nc12`, 0.656 µM.
`CCCCn1c(NC(=O)c2ccc(F)cc2)c(S(=O)(=O)c2ccc(C)cc2)c2nc3ccccc3nc21`: the IC50 is 1.32 µM.
As for `COc1ccc2c(c1)C(NC(C)=O)C(=O)N2CC1COc2ccccc2O1` (centres undefined), the IC50 is > 100 µM (inactive).
Then `CCCC1=NN(c2ccccc2)C(=O)/C1=C/c1ccc(OCc2ccc(C(=O)OC)cc2)cc1`, with > 100 µM (inactive).
Under `COC(=O)C1=C(C(=O)OC)C2([C@@H](Cc3ccccc3)Nc3ccccc3)C=CC1O2` (some centres undefined) stands > 100 µM (inactive); under `CCCCn1c(NC(=O)c2ccc(OC)cc2)c(S(=O)(=O)c2ccc(C)cc2)c2nc3ccccc3nc21`, 0.752 µM.
Then `CCCCNC(=O)c1c(NC(=O)c2ccccc2)n(Cc2ccccc2)c2nc3ccccc3nc12`, with 18.8 µM; and `C=CCC(Nc1ccccc1)C12C=CC(O1)C(C(=O)OC)=C2C(=O)OC` (centres undefined), with > 100 µM (inactive).
Consider `COc1cc(/C=C2\C(=O)N(c3ccccc3)N=C2C)ccc1OC(=O)c1cccs1`, for which the IC50 is > 100 µM (inactive).
Then `COc1ccc(CN2C(=O)C(NC(C)=O)c3ccccc32)cc1` (centres undefined), with > 100 µM (inactive); and `COC(=O)C1=C(C(=O)OC)C2([C@H](Cc3ccccc3)Nc3ccccc3)C=CC1O2` (some centres undefined), with > 100 µM (inactive); and `COC(=O)C1=C(C(=O)OC)C2([C@@H](Cc3ccccc3)Nc3ccc(Cl)cc3)C=CC1O2` (some centres undefined), with > 100 µM (inactive).
Then `COC(=O)C=C(NC(CO)(CO)CO)C(=O)OC`, with 87.2 µM.
Under `CCCCn1c(NC(=O)c2cccc(Cl)c2)c(C#N)c2nc3ccccc3nc21` stands 1.34 µM; under `CCCCn1c(NC(=O)c2ccc(F)cc2)c(C#N)c2nc3ccccc3nc21`, 1.16 µM.
Consider `C=CC[C@H](N(Cc1ccccc1)/C(=C\C(=O)OC)C(=O)OC)C12C=CC(O1)C(C(=O)OC)=C2C(=O)OC` (some centres undefined), for which the IC50 is > 100 µM (inactive).
Under `CC(=O)NC1C(=O)N(CCN2CCOCC2)c2ccc(C)cc21` (centres undefined) stands > 100 µM (inactive); under `Nc1c(C(=O)NCc2ccco2)c2nc3ccccc3nc2n1Cc1ccccc1`, 0.815 µM; under `COC(=O)C1=C(C(=O)OC)C2([C@@H](Cc3ccccc3)Nc3ccc(C)cc3)C=CC1O2` (some centres undefined), > 100 µM (inactive).
Under `COc1ccc2c(c1)C(NC(C)=O)C(=O)N2CCc1ccccc1` (centres undefined) stands > 100 µM (inactive).
As for `CCCCn1c(NC(=O)c2ccco2)c(S(=O)(=O)c2ccc(C)cc2)c2nc3ccccc3nc21`, the IC50 was 0.809 µM.
Then `C=CCn1c(NS(=O)(=O)c2ccccc2)c(S(=O)(=O)c2ccc(C)cc2)c2nc3ccccc3nc21`, with 0.769 µM; and `CCCCn1c(NC(=O)c2ccc(Cl)cc2)c(C#N)c2nc3ccccc3nc21`, with 0.859 µM; and `COC(=O)C1=C(C(=O)OC)C2([C@@H](Cc3ccc(OC)cc3)Nc3ccccc3)C=CC1O2` (some centres undefined), with > 100 µM (inactive).
Turning to `C=CC[C@H](Nc1ccc(OC)cc1)C12C=CC(O1)C(C(=O)OC)=C2C(=O)OC` (some centres undefined), the IC50 was > 100 µM (inactive).
Turning to `CCC(=O)Nc1c(S(=O)(=O)c2ccccc2)c2nc3ccccc3nc2n1Cc1ccccc1`, the IC50 was 0.755 µM.
Then `COC(=O)C1=C(C(=O)O)C2C=CC1([C@@H](Cc1ccccc1)Nc1ccccc1)O2` (some centres undefined), with > 100 µM (inactive).
Then `C=CCn1c(NC(=O)c2ccccc2Cl)c(C#N)c2nc3ccccc3nc21`, with 1.11 µM.
Under `CCCCn1c(NS(=O)(=O)c2ccccc2)c(S(=O)(=O)c2ccc(C)cc2)c2nc3ccccc3nc21` stands 0.741 µM; under `C=CC[C@H](Nc1ccc(C)cc1)C12C=CC(O1)C(C(=O)OC)=C2C(=O)OC` (some centres undefined), > 100 µM (inactive).
On to `CCCC1=NN(c2ccc(C(=O)O)cc2)C(=O)/C1=C/c1ccc(OCc2ccccc2)cc1`, for which the IC50 is > 100 µM (inactive).
Under `C=CC[C@@H](Nc1ccc(Cl)cc1)C12C=CC(O1)C(C(=O)OC)=C2C(=O)OC` (some centres undefined) stands > 100 µM (inactive); under `COc1ccc2c(c1)C(NC(C)=O)C(=O)N2CCOc1ccccc1` (centres undefined), > 100 µM (inactive); under `N#Cc1c(NC(=O)c2ccccc2Cl)n(Cc2ccccc2)c2nc3ccccc3nc12`, 2.78 µM.
Under `CCCCn1c(N)c(S(=O)(=O)c2ccc(C)cc2)c2nc3ccccc3nc21` stands 2.08 µM and 0.875 µM; under `C=CC[C@H](Nc1ccccc1)C12C=CC(O1)C(C(=O)OC)=C2C(=O)OC` (some centres undefined), > 100 µM (inactive); under `COC(=O)[C@@H]1C2CCC([C@@H](Cc3ccccc3)Nc3ccccc3)(O2)[C@@H]1C(=O)OC` (some centres undefined), > 100 µM (inactive).
As for `COc1cc(/C=C2\C(=O)N(c3ccccc3)N=C2C)ccc1OCc1ccccc1`, the IC50 is > 100 µM (inactive).
Then `COC(=O)C1=C(C(=O)OC)C2([C@H](Cc3ccccc3)Nc3ccc(OC)cc3)C=CC1O2` (some centres undefined), with > 100 µM (inactive); and `CCCCn1c(NC(C)=O)c(C#N)c2nc3ccccc3nc21`, with 0.669 µM.
Then `CCC[C@H](Nc1ccccc1)C12C=CC(O1)C(C(=O)OC)=C2C(=O)OC` (some centres undefined), with > 100 µM (inactive); and `COC(=O)C1=C(C(=O)OC)C2([C@@H](C)Nc3ccc(Cl)cc3)C=CC1O2` (some centres undefined), with > 100 µM (inactive); and `COC(=O)C1=C(C(=O)OC)C2([C@@H](Cc3ccccc3)Nc3ccc(OC)cc3)C=CC1O2` (some centres undefined), with > 100 µM (inactive).
For `CCCCn1c(NC(=O)CC)c(S(=O)(=O)c2ccc(C)cc2)c2nc3ccccc3nc21`, the IC50 is 0.742 µM.
